According to US20110009496A1, “RESVERATROL FORMULATIONS” (SIRTRIS PHARMACEUTICAS, INC., priority 2008, published 2011):

Legend:
[1] = molecular target: cytochrome oxidase (Complex IV) (Homo sapiens, UniProt P00395); settings: cited from earlier work
[2] = test system: retinal ganglion cells; settings: treated animals; cited from earlier work
[3] = molecular target: Sir2 (Saccharomyces cerevisiae, UniProt P06700); settings: cited from earlier work
[4] = test system: HDAC; settings: in vitro or in vivo; cited from earlier work
[5] = Dilution of liquid resveratrol formulations with purified water (precipitation); format: physicochemical; settings: DS dissolved in Gelucire 44/14 at 100 mg/g
Description: A liquid formulation was prepared by dissolving resveratrol (drug substance, DS) and monoacyl phospholipid in a mixture of PEG 300 and propyleneglycol. The ratio between the DS and phospholipid was 1/12 w/w in PEG 300/propyleneglycol 1/1 w/was solvent mixture. The formulation, which has a 5% drug load, was clear after dilution in purified water for more than 4 hours. Starting from Formulation 13, the drug load was increased to 10% using the same 1/1 w/w ratio of Vit E TPGS/DS and replacing propyleneglycol with Labrasol™. Upon one-fold dilution with water a slight DS precipitation was observed. […] After a few hours, some oil droplets were visible on the surface of the water phase. To further improve Formulation 11, the use of the two lipids Gelucire™ 44/14 and Labrasol™ were explored as main components in the formulations. […] The DS precipitated in the form of oil-like droplets. […] Higher drug loads can be achieved by using the two lipids in combination with ethanol as additional solvent/excipient to fully solubilize the drug in the formulation.

[6] = test system: C. elegans; settings: in vivo; cited from earlier work
[7] = test system: mammalian cells; settings: cited from earlier work
[8] = test system: insulin resistant cells; settings: cited from earlier work
[9] = topical; cited from earlier work

Sir2, sequence (P06700 whole entry): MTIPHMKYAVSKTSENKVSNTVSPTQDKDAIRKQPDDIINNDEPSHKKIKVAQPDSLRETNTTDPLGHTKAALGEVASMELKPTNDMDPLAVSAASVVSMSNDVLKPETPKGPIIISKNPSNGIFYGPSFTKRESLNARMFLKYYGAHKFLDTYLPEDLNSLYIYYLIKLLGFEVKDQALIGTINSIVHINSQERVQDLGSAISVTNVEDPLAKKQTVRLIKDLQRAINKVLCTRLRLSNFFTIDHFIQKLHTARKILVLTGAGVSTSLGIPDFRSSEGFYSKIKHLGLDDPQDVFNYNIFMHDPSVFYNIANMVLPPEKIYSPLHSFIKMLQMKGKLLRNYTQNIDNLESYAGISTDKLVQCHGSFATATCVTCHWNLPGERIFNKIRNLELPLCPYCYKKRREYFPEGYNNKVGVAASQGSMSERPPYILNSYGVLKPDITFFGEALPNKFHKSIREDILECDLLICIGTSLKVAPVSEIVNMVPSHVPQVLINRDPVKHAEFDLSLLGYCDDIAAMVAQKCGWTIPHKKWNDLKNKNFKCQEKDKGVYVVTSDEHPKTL

In the case of `[N]=O` [Nitric oxide], the “concentration that inhibits cytochrome oxidase (Complex IV)” value [1] is given as “about 1 micromolar”.
In the case of `N=C(N)NN` [aminoguanidine], the “loss of retinal ganglion cells” value [2] is listed as “reduction in the loss of retinal ganglion cells”.
For `CC(/C=C/C(=O)NO)=C\[C@@H](C)C(=O)c1ccc(N(C)C)cc1` [TSA, trichostatin A], the “sensitivity of Sir2 to histone deacetylase inhibitors” value [3] is given as “insensitive” and the “inhibition of HDAC (concentration level in words)” value (from here on “inhibition of HDAC”) [4] is given as “potent inhibitor”.
For `Oc1ccc(/C=C/c2cc(O)cc(O)c2)cc1` [resveratrol, 3,5,4′-trihydroxystilbene], the “precipitation after dilution with purified water” value [5] is given as “precipitated in a fast manner”, the “fat accumulation in C. elegans” value [6] is given as “prevent fat accumulation” and the “fat mobilization in C. elegans” value [6] is given as “promotes fat mobilization”. The “adipogenesis in mammalian cells” value [7] was “inhibit adipogenesis”, the “fat mobilization in mammalian cells” value [7] was “stimulate fat mobilization” and the “insulin sensitivity in insulin resistant cells” value [8] was “at least partially restore insulin sensitivity”.
For `O=C(/C=C/c1cccc(C(=O)NO)c1)NO` [CBHA, m-carboxy-cinnamic acid bishydroxamic acid], the “inhibition of HDAC” value [4] is listed as “micromolar concentration or lower”.
In the case of `CC(C)(C)NC[C@H](O)COc1nsnc1N1CCOCC1` [timolol], the “time for IOP to fall” value [9] is listed as 30 min and the “time of peak effects on IOP” value [9] is listed as 1 to 2 h.
For `C/C=C1\NC(=O)[C@H]2CSSCC/C=C/[C@H](CC(=O)N[C@H](C(C)C)C(=O)N2)OC(=O)[C@H](C(C)C)NC1=O` [Depsipeptide, depsipeptide], the “inhibition of HDAC” value [4] is listed as “micromolar concentrations”.
For depudecin, the “inhibition of HDAC” value [4] is listed as “micromolar concentrations”.
